{"source": "patent US20070197606A1", "about": "“USE OF PPAR AGONISTS AS ANTI-OXIDANTS” (priority 2006, published 2007)", "key": {"[1]": {"tested_on": "bile duct ligated rats", "type": "in vivo, rat", "settings": "serum; BDL rats, clofibrate 50 mg/100 g body weight/day by gavage for 5 days after 7 days BDL; mean ± standard error"}, "[2]": {"tested_on": "bile duct ligated rats", "experiment": "Lipid peroxidation (thiobarbituric acid-reactive substances) assay in bile duct ligated rats with clofibrate treatment", "type": "in vivo, rat", "settings": "BDL rats, clofibrate 50 mg/100 g body weight/day by gavage for 5 days after 7 days BDL, mean ± standard error", "text": "Bile-duct ligation animal model time study: […] Histopathologic examination: […] The sense primer was [NT] […] ID NO: 2) (position at 407)."}, "[3]": {"tested_on": "liver fatty acid binding protein", "experiment": "L-FABP mRNA (RT-PCR) and protein (Western blot) level in liver of bile duct ligated rats with clofibrate treatment", "type": "in vivo, rat", "settings": "BDL rats, five day treatment with clofibrate, n=5", "text": "FIG. 5. […] Bile-duct ligation animal model time study: […] Histopathologic examination: […] The sense primer was [NT] […] ID NO: 2) (position at 407)."}, "[4]": {"experiment": "In vitro antioxidative effect on free radicals released by the lipophilic free radical generator AMVN", "type": "biochemical", "method": "FIG. 7 Effect of L-FABP on free radicals released by the lipophilic free radical generator AMVN. L-FABP had as much effect on inactivating lipophilic free radicals as 5 μM Vitamin E (mean±SD, n=6).\n(§1) Our group has constructed and isolated recombinant L-FABP and used this protein in an in vitro model to study it's antioxidative properties."}, "[5]": {"experiment": "In vitro antioxidative effect on free radicals released by the hydrophilic free radical generator AAPH", "type": "biochemical", "settings": "mean±SD, n=6", "method": "FIG. 6 Effect of L-FABP on free radicals released by the hydrophilic free radical generator AAPH. L-FABP had as much effect on inactivating hydrophilic free radicals as 3.5 mM Vitamin C, while lysozyme and albumin had negligible effect, 96±1% and 97±1%, respectively (mean±SD, n=6).\nas §1"}}}
{"molecule": "CCOC(=O)C(C)(C)Oc1ccc(Cl)cc1", "note": "[Clofibrate]", "values": [{"measurement": "ATL", "setting": "[1]", "value": "30.70 ± 3.26", "unit": "U/L"}, {"measurement": "Ammonia", "setting": "[1]", "value": "205.7 ± 16.6", "unit": "µmol/L"}, {"measurement": "Total Bilirubin", "setting": "[1]", "value": "4.87 ± 0.90", "unit": "mg/dL"}, {"measurement": "TBARS (liver)", "setting": "[2]; liver", "value": "0.266 ± 0.053", "unit": "nmol/mg protein"}, {"measurement": "TBARS (serum)", "setting": "[2]; serum", "value": "0.212 ± 0.032", "unit": "nmol/ml serum"}, {"measurement": "liver fatty acid binding protein mRNA level, of the sham group", "setting": "[3]; RT-PCR", "value": 74, "unit": "%"}, {"measurement": "liver fatty acid binding protein level, of the sham group", "setting": "[3]; Western blot", "value": 79, "unit": "%"}]}
{"molecule": "O=C1O[C@H]([C@@H](O)CO)C(O)=C1O", "note": "[Vitamin C]", "values": [{"measurement": "antioxidant properties in the AMVN system", "setting": "[4]", "value": "no antioxidant properties"}]}
{"molecule": "Albumin", "values": [{"measurement": "effect on free radical inactivation (AAPH)", "setting": "[5]", "value": "97±1", "unit": "%"}]}
{"molecule": "Lysozyme", "values": [{"measurement": "effect on free radical inactivation (AAPH)", "setting": "[5]", "value": "96±1", "unit": "%"}]}
